How the values were obtained:
[1] = single dose of 50 mg, within 72 hours after unprotected intercourse; cited from earlier work
[2] = 3 months of continuous daily administration to healthy cycling volunteers; assessment of ovarian hormones, follicular development, endometrial histology, bleeding patterns; assay type: in vivo, women; settings: one patient, 10 mg/day, missed 2 days of drug (days 1 and 2) in third treatment cycle
Method: For that purpose, health cycling volunteers received 3 months of continuous daily administration of ulipristal acetate (2.5, 5 or 10 mg) or placebo.
Assessment of ovarian hormones, follicular development, endometrial histology, and menstrual bleeding patterns was carried out during the third month of treatment.
This made the inventors think that ulipristal acetate could be used as a contraceptive which could be taken on-demand, rather than everyday as any hormonal contraceptive pill.

[3] = Multiple intakes of ulipristal acetate within a menstrual cycle after declared intercourse (pregnancy outcome); assay type: in vivo; settings: 30 mg after a declared intercourse, twice during a menstrual cycle; several women (5 in the table)
Method: Multiple Intakes of Ulipristal Acetate within a Menstrual Cycle
Several women received ulipristal acetate (30 mg) after a declared intercourse, twice during a menstrual cycle.

CC(=O)O[C@]1(C(C)=O)CC[C@H]2[C@@H]3CCC4=CC(=O)CCC4=C3[C@@H](c3ccc(N(C)C)cc3)C[C@@]21C [ulipristal acetate, 17α-acetoxy-11β-[4-N,N-dimethylamino-phenyl)-19-norpregna-4,9-diene-3,20-dione]
safety and efficacy as emergency contraception [1]: safe and efficacious
luteal activity or ovulation [2]: no sign of luteal activity or ovulation
pregnancy [3]: No pregnancy was observed

— patent US9283233B2, “Method for on-demand contraception” (LABORATOIRE HRA PHARMA, priority 2009, dated 2016)
